Experimental data from patent US20230357320A1, “HELICAL STAPLED PEPTIDES AND USES THEREOF” (FOG PHARMACEUTICALS, INC., priority 2020, published 2023).
≈ marks a conversion by molar mass, not a printed value. Like-named read-outs stand apart in the source and are kept apart here. Starred links: 1 amine or outer side, 2 acyl side, 3 side chain; linkers in the order of their positions; H or OH if unused. Positions of bridges follow the written chain, without caps; N, C: chain ends. Non-standard residues stand in square brackets, D forms with d. Residues, ends and D or L forms follow the SMILES beside them. *: point of attachment. FITC = O=C1OC2(c3ccc(O)cc3Oc3cc(O)ccc32)c2ccc(NC(=S)*)cc21; X1 = O=C([C@]1(CC=[*:3])CCCN1[*:1])[*:2]; S5 = C=CCCC[C@](C)(N)C(=O)O; Nle = CCCC[C@H](N)C(=O)O; βAla = NCCC(=O)O

Columns and labels:
[1] = PAMPA (Parallel Artificial Membrane Permeability Assay); parameters: Papp at 5 h: dose or concentration left out as unconfirmed;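 also: Phospholipid-membrane PAMPA, donor and acceptor in DPBS pH 7.4 with 5% DMSO, 37 °C for 5 h, compound in each well quantified by reverse-phase HPLC-MS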
[2] = CHI Log D measurement (chromatographic hydrophobicity index); conditions: reverse-phase HPLC, Phenomenex Gemini C-18 column, pH 7.4
[3] = target: T1, ERβ LBD (Homo sapiens, UniProt Q92731); experiment: Competition fluorescence polarization (FP) binding assay with FITC-ERL4 probe
T1 construct: pET28a+ vector containing ERβ LBD (residues from 261 to 500) along with an N-terminal His6-yBBr-TEV tag; His6 (N); yBBr (N); TEV cleavage site (N); made in house; host or cells: E. coli BL21(DE3) pLysS
Procedure: In addition to the PAMPA assay, to study the affinity of the first-generation ProLock™ stapled peptides to the Estrogen receptor p ligand-binding domain (ERβ LBD), a fluorescence polarization (FP) binding assay in competition format was used in the presence of the endogenous ERβ LBD ligand estradiol. Competition Fluorescence Polarization (FP) assay was performed on the peptides to determine their half-maximal effective concentration (EC50). To do this, FITC labeled ERL4 peptide (FITC-βAla-His-Pro-Leu-Leu-Nle-Arg-Leu-Leu-Leu-Ser-Pro-CONH2) was synthesized to be used as a fluorescence probe based on existing literature (Fuchs et al., Journal of the American Chemical Society 2013, 135 (11), 4364-4371). Direct FP was performed in black 384-well plates (Corning). The final volume of each assay well was 40 μL with constant concentration of FITC labeled ERL4 peptide (10 nM) and variable concentrations of ERβ LBD protein.
ERβ LBD expression and purification was performed as follows. BL21(DE3) pLysS E. coli cells were transformed with a pET28a+ vector containing ERβ LBD (residues from 261 to 500) along with an N-terminal His6-yBBr-TEV tag. An overnight culture in 10 mL of TB media containing 50 μg/mL kanamycin was prepared from a single bacterial colony. The overnight culture was subsequently added to 1 liter of autoclaved TB media containing 50 μg/mL kanamycin and shaken at 37° C. until an OD of 0.6-0.8 was reached. IPTG was added to the culture and left shaking for 6 hours. Bacterial culture was pelleted and resuspended in lysis buffer. Resuspended bacterial culture was incubated at 0° C. for 10 minutes before sonication at 65% amplitude with 10-sec cycles using a Branson Sonifier. The lysate was then cleared by centrifugation at 8000×g for 20 min. […] The expected molecular weight of the ERβ LBD protein is 30.8 KDa, which molecular weight was confirmed by SDS PAGE analysis. Purified ERβ LBD was concentrated to 90 μM and was stored at −80° C. buffer.
Competition FP assays were also employed. These were performed in black 384-well plates (Corning). The final volume of each assay well was 80 μL containing constant concentrations of estradiol (1 μM) and FITC labeled ERL4 (10 nM). The ERβ LBD concentration was held constant (200 nM) while varying the concentration of ProLock stapled peptides (3-fold dilution from 10 μM). Upon addition of samples to each well, the plate was centrifuged for 10 seconds at 3000 rpm and incubated at 4° C. for 1 hour. FP measurements were performed at room temperature with excitation and emission wavelengths at 485 and 535 nm using a Clariostar microplate reader (BMG Labtech). Each plate had high and low polarization samples, which are used to normalize the assay data. The competition FP results were analyzed by Prism 7 (GraphPad). The non-linear regression analysis of the data was used to determine the half-maximal effective concentration (EC50) of ProLock stapled peptides. […] The normalized FP values shown in FIG. 6 are mean±S.E.M of at least four independent replicates.

[4] = in vitro; parameters: dose or concentration left out as unconfirmed; conditions: PAMPA, pH 7.4, PAMPA Pe
[5] = physchem; conditions: pH 7.4
[6] = target: T2, Estrogen receptor β ligand-binding domain (ERβ LBD), residues 261 to 500, with N-terminal His6-yBBr-TEV tag (UniProt Q92731 261-500); experiment: direct fluorescence polarization; 10 nM probe, ERβ LBD titrated from 5 µM with estradiol; 1:1 binding model with Hill slope
T2 construct: range 261-500; Expressed in E. coli BL21(DE3) pLysS from pET28a+, purified by Ni-NTA and SEC; Assays were run in the presence of estradiol; also called ER LBD; not shown: N-terminal His6-yBBr-TEV tag
T2 sequence (Q92731 261-500): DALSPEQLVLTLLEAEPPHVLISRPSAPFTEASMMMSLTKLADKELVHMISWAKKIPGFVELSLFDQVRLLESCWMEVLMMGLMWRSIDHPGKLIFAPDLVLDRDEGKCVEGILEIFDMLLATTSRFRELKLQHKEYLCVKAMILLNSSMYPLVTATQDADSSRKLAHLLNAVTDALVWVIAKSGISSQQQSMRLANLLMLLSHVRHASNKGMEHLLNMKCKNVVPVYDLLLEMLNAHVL

Molecule | Papp at 5 h ([1]; PAMPA, pH 7.4) | % Retention ([1]; Table 5, compound retained in solution at the end of the PAMPA assay compared to the input sample) | chromatographic logD [2] | EC50 [3] | Papp at 5 h [4] | solubility [5] | PAMPA Pe | % Retention (PAMPA) | EC50 ([3]; binding towards the ERβ LBD, read-out: EC50) | Kd [6]
CNC(=O)[C@H](Cc1ccc(O)cc1)NC(=O)[C@H](Cc1c[nH]cn1)NC(=O)[C@H](CC(C)C)NC(=O)[C@H](CC(C)C)NC(=O)[C@H](CCCNC(=N)N)NC(=O)[C@]1(C)CCCC=CC[C@]2(CCCN2C(C)=O)C(=O)N[C@@H](CC(C)C)C(=O)N[C@@H](CC(C)C)C(=O)N1 [PLL4-3, Ac-PL3-Leu-Leu-S5-Arg-Leu-Leu-His-Tyr-NHMe] (Ac-[X1]LL[S5]RLLHY-NHMe; staple 1-4) | < 0.1 ×10⁻⁶ cm/s | 73 ± 4% | 2.7 | 700 nM | – | – | – | – | – | –
CNC(=O)[C@H](Cc1ccc(O)cc1)NC(=O)[C@@H](NC(=O)[C@H](CC(C)C)NC(=O)[C@H](CC(C)C)NC(=O)[C@H](CC(N)=O)NC(=O)[C@]1(C)CCCC=CC[C@]2(CCCN2C(C)=O)C(=O)N[C@@H](CCCCN)C(=O)N[C@@H](CC(C)C)C(=O)N1)[C@@H](C)O [PLL4-5, Ac-PL3-Lys-Leu-S5-Asn-Leu-Leu-Thr-Tyr-NHMe] (Ac-[X1]KL[S5]NLLTY-NHMe; staple 1-4) | – | – | 1.8 | – | 0.7 ± 0.2 ×10⁻⁶ cm/s | 880 µM (≈ 1030 µg/mL) | 0.7 ± 0.2 (×10^−6) cm/sec | 74 ± 3% | 3000 nM | –
{FITC}-[βAla]HPLL[Nle]RLLLSP-NH2 (Fluorescent probe of the FP assays; also called FITC-ERL4; FITC-ERL4 probe) [FITC labeled ERL4 peptide (FITC-βAla-His-Pro-Leu-Leu-Nle-Arg-Leu-Leu-Leu-Ser-Pro-CONH2)] | – | – | – | – | – | – | – | – | – | 160 nM
